Test results: patent US20220160817A1, “Pharmaceutical composition with improved stability” (Foresee Pharmaceuticals Co., Ltd., priority 2014, published 2022)

Tests used:
Assay type in all cases: physicochemical
[1] = FMOC-SER-OH / FMOC-ARG-OH reaction with D,L-lactide monomers in NMP at 25° C., HPLC; conditions: 25% D,L-lactide in NMP
Procedure: All impurity structures identified have polymers reacting with the arginine group of the peptide. In the present invention, it is shown that the conjugates of lactide monomers reacting with the serine group of the peptide are the more significant impurities generated, that were not observed previously. To test the generation of leuprolide conjugates with lactide monomers, FMOC-ARG-OH or FMOC-SER-OH was dissolved in NMP. To this solution D,L-lactide monomers were added. The solution was mixed well by vortexing. 5 uL of the solution was added to an HPLC vial with 0.5 mL of acetonitrile and 0.5 mL stability buffer (0.6% TEA/0.3% H3PO4 in water, pH=3.0). The sample was then analyzed by HPLC. The remaining solutions were stored in a glass vial at 25° C. Samples were taken at specified time points and analyzed by UPLC.

[2] = L-lactide monomer impurity generation with leuprolide mesylate in NMP, HPLC; conditions: NMP with 10% L-lactide, 3 hours at 37° C.
[3] = Octreotide mesylate with excess methane sulfonic acid in solvent with added lactide monomer; conditions: pH of the salt solution 2.4, pharmaceutically acceptable solvent
Excerpt: U.S. Pat. No. 8,343,513 further discloses that in order to reduce the impurities generation, low molecular weight polymers with high acid numbers and significant amount of low pKa acid additives or oligomers have to be used. Such acidic dispersed phases are not suitable for human parenteral use due to tissue irritation from the low pH. […] In fact more impurities are generated for the solution with excess acid than the one without.

Compound: NC(N)=NCCC[C@H](NC(=O)OCC1c2ccccc2-c2ccccc21)C(=O)O [FMOC-ARG-OH]
- impurities generated with D,L-lactide monomers ([1]; 1 day at 25° C.): less than that seen with the serine

Compound: O=C(N[C@@H](CO)C(=O)O)OCC1c2ccccc2-c2ccccc21 [FMOC-SER-OH]
- impurities generated with D,L-lactide monomers ([1]; 3 hours at 25° C.): very little impurities
- impurities generated with D,L-lactide monomers ([1]; 1 day at 25° C.): significant amount of impurities

Compound: leuprolide mesylate [LAMS]
- lactide-related impurity peak shape in chromatogram [2]: single peak

Compound: octreotide mesylate
- stability of the peptide with added lactide monomer [3]: highly unstable
